Test results reported in ChEMBL document CHEMBL1122409, “Estrogen receptor binding and estrogenic/antiestrogenic effects of two new metabolites of nitromiphene, 2-[p-[2-nitro-1-(4-methoxyphenyl)-2-phenylvinyl]phenoxy]-N-ethylpyrrolidine” (J Med Chem, 1983).
Values belong to the molecule of their own block, whether it stands above or below them. Activity calls are given as the source filed them. The rule behind the calls is not given here.

What was measured:
[1] = target: T1, Estrogen receptor (Rattus norvegicus) (UniProt P06211+Q62986); assay: Displacement of [3H]estradiol from rat estrogen receptor; inactive; type: protein assay
[2] = target: T1, Estrogen receptor (Rattus norvegicus); assay: Displacement of [3H]estradiol from rat estrogen receptor; modest estrogenic activity; type: protein assay
[3] = target: T1, Estrogen receptor (Rattus norvegicus); assay: Antagonistic effect on estradiol benzoate induced uterine weight gain in immature rats at 1E-6M; type: functional; design: scale not given: the % may be the effect or the level left
[4] = target: T1, Estrogen receptor (Rattus norvegicus); assay: Displacement of [3H]estradiol from rat estrogen receptor; increased estrogenic activity; type: protein assay
[5] = target: T1, Estrogen receptor (Rattus norvegicus); assay: Antagonistic effect against estradiol benzoate induced uterine weight gain in immature rats at 1E-6M; increased estrogenic activity; type: functional; design: scale not given: the % may be the effect or the level left

Activity [1]: inactive
Compound: COc1ccc(C(C(=O)c2ccccc2)c2ccc(OCCN3CCCC3)cc2)cc1 (stereo not given)

Activity [2]: Weak activity
Activity [3]: 11%
Compound: COc1ccc(/C(=C(/c2ccccc2)[N+](=O)[O-])c2ccc(OCCN3CCCC3)cc2)cc1

Activity [4]: Active
Activity [5]: 43%
Compound: COc1ccc(/C(=C(/c2ccccc2)[N+](=O)[O-])c2ccc(OCCN3CCCC3=O)cc2)cc1
